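How tested: cells in 96-well plates exposed to compound for 48 hours at five concentrations. GI50 is the concentration that inhibits growth by half. TGI marks complete inhibition of growth.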
Assays:
Assay in all cases: inhibition of tumour cell growth, NCI panel, 48 h
786-0 renal = tested on: 786-0 renal
A498 renal = tested on: A498 renal
A549 NSCLC = tested on: A549 NSCLC
ACHN renal = tested on: ACHN renal
BT-549 breast = tested on: BT-549 breast
CAKI-1 renal = tested on: CAKI-1 renal
CCRF-CEM leukemia = tested on: CCRF-CEM leukemia
COLO 205 colon = tested on: COLO 205 colon
DU-145 prostate = tested on: DU-145 prostate
EKVX NSCLC = tested on: EKVX NSCLC
HCC-2998 colon = tested on: HCC-2998 colon
HCT-116 colon = tested on: HCT-116 colon
HCT-15 colon = tested on: HCT-15 colon
HL-60(TB) leukemia = tested on: HL-60(TB) leukemia
HOP-62 NSCLC = tested on: HOP-62 NSCLC
HOP-92 NSCLC = tested on: HOP-92 NSCLC
HS 578T breast = tested on: HS 578T breast
HT29 colon = tested on: HT29 colon
IGROV1 ovarian = tested on: IGROV1 ovarian
K-562 leukemia = tested on: K-562 leukemia
KM12 colon = tested on: KM12 colon
LOX IMVI melanoma = tested on: LOX IMVI melanoma
M14 melanoma = tested on: M14 melanoma
MALME-3M melanoma = tested on: MALME-3M melanoma
MCF7 breast = tested on: MCF7 breast
MDA-MB-231 breast = tested on: MDA-MB-231 breast
MDA-MB-435 = tested on: MDA-MB-435
MDA-MB-468 breast = tested on: MDA-MB-468 breast
MOLT-4 leukemia = tested on: MOLT-4 leukemia
NCI-H226 lung = tested on: NCI-H226 lung
NCI-H23 lung = tested on: NCI-H23 lung
NCI-H460 lung = tested on: NCI-H460 lung
NCI-H522 lung = tested on: NCI-H522 lung
NCI/ADR-RES ovarian = tested on: NCI/ADR-RES ovarian
OVCAR-3 ovarian = tested on: OVCAR-3 ovarian
OVCAR-4 ovarian = tested on: OVCAR-4 ovarian
OVCAR-5 ovarian = tested on: OVCAR-5 ovarian
OVCAR-8 ovarian = tested on: OVCAR-8 ovarian
PC-3 prostate = tested on: PC-3 prostate
RPMI-8226 leukemia = tested on: RPMI-8226 leukemia
RXF 393 renal = tested on: RXF 393 renal
SF-268 CNS = tested on: SF-268 CNS
SF-295 CNS = tested on: SF-295 CNS
SF-539 CNS = tested on: SF-539 CNS
SK-MEL-2 melanoma = tested on: SK-MEL-2 melanoma
SK-MEL-28 melanoma = tested on: SK-MEL-28 melanoma
SK-MEL-5 melanoma = tested on: SK-MEL-5 melanoma
SK-OV-3 ovarian = tested on: SK-OV-3 ovarian
SN12C renal = tested on: SN12C renal
SNB-19 CNS = tested on: SNB-19 CNS
SNB-75 CNS = tested on: SNB-75 CNS
SR leukemia = tested on: SR leukemia
SW-620 colon = tested on: SW-620 colon
T-47D breast = tested on: T-47D breast
TK-10 renal = tested on: TK-10 renal
U251 CNS = tested on: U251 CNS
UACC-257 melanoma = tested on: UACC-257 melanoma
UACC-62 melanoma = tested on: UACC-62 melanoma
UO-31 renal = tested on: UO-31 renal

OC1CCC(Cn2c(C(F)(F)F)cc3c(Cl)ncnc32)CC1 (stereo not drawn)
GI50 (786-0 renal): 32.1 µM | TGI (786-0 renal): > 100 µM | GI50 (A498 renal): > 100 µM | TGI (A498 renal): > 100 µM | GI50 (A549 NSCLC): 30.8 µM | TGI (A549 NSCLC): > 100 µM | GI50 (ACHN renal): 8.76 µM | TGI (ACHN renal): 49.9 µM | GI50 (BT-549 breast): 13.1 µM | TGI (BT-549 breast): 27.9 µM | GI50 (CAKI-1 renal): 16.8 µM | TGI (CAKI-1 renal): 52.8 µM | GI50 (CCRF-CEM leukemia): 5.56 µM | TGI (CCRF-CEM leukemia): > 100 µM | GI50 (COLO 205 colon): 24.4 µM | TGI (COLO 205 colon): > 100 µM | GI50 (DU-145 prostate): 7.87 µM | TGI (DU-145 prostate): 20.5 µM | GI50 (EKVX NSCLC): 12.9 µM | TGI (EKVX NSCLC): 38.7 µM | GI50 (HCC-2998 colon): 1.8 µM | TGI (HCC-2998 colon): 3.33 µM | GI50 (HCT-116 colon): 3.56 µM | TGI (HCT-116 colon): 15.8 µM | GI50 (HCT-15 colon): 3.69 µM | TGI (HCT-15 colon): 20.1 µM | GI50 (HL-60(TB) leukemia): 2.62 µM | TGI (HL-60(TB) leukemia): 9.01 µM | GI50 (HOP-62 NSCLC): 19.7 µM | TGI (HOP-62 NSCLC): 57.6 µM | GI50 (HOP-92 NSCLC): 20.6 µM | TGI (HOP-92 NSCLC): 64.6 µM | GI50 (HS 578T breast): 13.8 µM | TGI (HS 578T breast): 53.6 µM | GI50 (HT29 colon): 15.6 µM | TGI (HT29 colon): > 100 µM | GI50 (IGROV1 ovarian): 1.97 µM | TGI (IGROV1 ovarian): 4.07 µM | GI50 (K-562 leukemia): 2.88 µM | TGI (K-562 leukemia): > 100 µM | GI50 (KM12 colon): 26.4 µM | TGI (KM12 colon): 94.3 µM | GI50 (LOX IMVI melanoma): 1.71 µM | TGI (LOX IMVI melanoma): 3.15 µM | GI50 (M14 melanoma): 4.94 µM | TGI (M14 melanoma): 27 µM | GI50 (MALME-3M melanoma): 17.7 µM | TGI (MALME-3M melanoma): 64.5 µM | GI50 (MCF7 breast): 36.9 µM | TGI (MCF7 breast): > 100 µM | GI50 (MDA-MB-231 breast): 4.45 µM | TGI (MDA-MB-231 breast): 20.1 µM | GI50 (MDA-MB-435): 12.1 µM | TGI (MDA-MB-435): 25.8 µM | GI50 (MDA-MB-468 breast): 2.14 µM | TGI (MDA-MB-468 breast): 5.69 µM | GI50 (MOLT-4 leukemia): 2.77 µM | TGI (MOLT-4 leukemia): 8.15 µM | GI50 (NCI-H226 lung): 23.4 µM | TGI (NCI-H226 lung): 79.7 µM | GI50 (NCI-H23 lung): 3.08 µM | TGI (NCI-H23 lung): 11.4 µM | GI50 (NCI-H460 lung): 4.76 µM | TGI (NCI-H460 lung): 16.6 µM | GI50 (NCI-H522 lung): 1.54 µM | TGI (NCI-H522 lung): 3.55 µM | GI50 (NCI/ADR-RES ovarian): 26.1 µM | TGI (NCI/ADR-RES ovarian): > 100 µM | GI50 (OVCAR-3 ovarian): 8.04 µM | TGI (OVCAR-3 ovarian): 29.1 µM | GI50 (OVCAR-4 ovarian): 17.8 µM | TGI (OVCAR-4 ovarian): 47.2 µM | GI50 (OVCAR-5 ovarian): > 100 µM | TGI (OVCAR-5 ovarian): > 100 µM | GI50 (OVCAR-8 ovarian): 2.29 µM | TGI (OVCAR-8 ovarian): 5.39 µM | GI50 (PC-3 prostate): 9.01 µM | TGI (PC-3 prostate): 36.3 µM | GI50 (RPMI-8226 leukemia): 34 µM | TGI (RPMI-8226 leukemia): > 100 µM | GI50 (RXF 393 renal): 12.5 µM | TGI (RXF 393 renal): 35 µM | GI50 (SF-268 CNS): 2.52 µM | TGI (SF-268 CNS): 6.89 µM | GI50 (SF-295 CNS): 22.7 µM | TGI (SF-295 CNS): 84 µM | GI50 (SF-539 CNS): 17.7 µM | TGI (SF-539 CNS): 39 µM | GI50 (SK-MEL-2 melanoma): 13.2 µM | TGI (SK-MEL-2 melanoma): 27.9 µM | GI50 (SK-MEL-28 melanoma): 9.38 µM | TGI (SK-MEL-28 melanoma): 30.8 µM | GI50 (SK-MEL-5 melanoma): 4.81 µM | TGI (SK-MEL-5 melanoma): 16.7 µM | GI50 (SK-OV-3 ovarian): 22.4 µM | TGI (SK-OV-3 ovarian): > 100 µM | GI50 (SN12C renal): 5.36 µM | TGI (SN12C renal): 19.8 µM | GI50 (SNB-19 CNS): 13.4 µM | TGI (SNB-19 CNS): 26.8 µM | GI50 (SNB-75 CNS): 10.8 µM | TGI (SNB-75 CNS): 23.1 µM | GI50 (SR leukemia): 2.14 µM | TGI (SR leukemia): 6.78 µM | GI50 (SW-620 colon): 12.2 µM | TGI (SW-620 colon): 38.8 µM | GI50 (T-47D breast): 26.5 µM | TGI (T-47D breast): > 100 µM | GI50 (TK-10 renal): > 100 µM | TGI (TK-10 renal): > 100 µM | GI50 (U251 CNS): 3.21 µM | TGI (U251 CNS): 12.8 µM | GI50 (UACC-257 melanoma): 3.4 µM | TGI (UACC-257 melanoma): 14.1 µM | GI50 (UACC-62 melanoma): 5.4 µM | TGI (UACC-62 melanoma): 19.3 µM | GI50 (UO-31 renal): 15.1 µM | TGI (UO-31 renal): 65.8 µM

From PubChem BioAssay (NCI)
